Results published in patent US20260248763A1 (BIO GENUINE (SHANGHAI) BIOTECH CO., LTD, priority 2023, published 2026).
Where two headings read alike, the source gives them in different places.

Legend:
V1aR = molecular target: T1, V1aR (Homo sapiens, UniProt P37288); test: Ca2+ mobilization in cells stably expressing V1aR (FLIPR, antagonist mode); assay type: cell-based; settings: V1a-CHO stably transfected cell line
T1 construct: expressed in transfected cells; host or cells: V1a-CHO stably transfected cell line
From the text: Test Example 2. Determination of the Effect of the Compound of the Present Disclosure on Ca^2+ Mobilization in Cells Stably Expressing V1aR
To measure the antagonistic effect of the compound of the present disclosure on V1aR activity expressed in the V1a-CHO stably transfected cell line.
• F-12 (Hyclone, SH30026.01) • FLIPR CALCIUM 6 ASSAY KIT (Molecul Device, R8191) • Fetal Bovine Serum (FBS) (AusGeneX, FBS500-S) • Hygromycin B (Solarbio, H8080-1g) • DMSO (Sigma, D4540) • HBSS (Gibco 14025-092) • Probenecid (MCE, HY—B0545) • 0.36 mL 96 Round V-bottom Deep Well Plates for Laboratory (Biaosen P-0.36-BSA-96) • 384-well conical bottom polypropylene plate (Nunc, 264573) • Corning® 384-well Flat Clear Bottom Black Polystyrene TC-treated Microplates (Corning 3764)
• Biological safety cabinet (ECSO, AC2-6S1-TC) • Carbon dioxide cell incubator (ECSO, CCI-170B-8) • Inverted microscope (Olympus, CKX53) • Microplate low-speed centrifuge (Xiangzhi, TD5B) • FLIPR® Penta (Molecul Device, 5.0)
• 1. Cell plating: V1a-CHO cells were digested and harvested, resuspended and counted, and then inoculated into a 384-well cell plate at a density of: 1.2×10^4 cells/25 μL/well. The cell plate was then incubated in an incubator at 37° C. with 5% CO2 for about 16-20 h. • 2. The next day: after preparing Assay Buffer, 20× Component A was thawed to room temperature, diluted with Assay buffer to 1× loading buffer, and placed at room temperature for later use. • 3. The medium was removed from the cell plate, and 40 μL of 1× loading buffer was quickly added to each well. After centrifugation, the cell plate was incubated at 37° C. in the dark for 120 minutes. • 4. The serially diluted positive compound, serially diluted test compound, and agonist working solution were formulated. After mixing the serially diluted positive compound/serially diluted test compound with the agonist at a 1:1 ratio, 20 μL per well was transferred to a 384-well compound source plate. • 5. The cell plate, agonist source plate, and pipette tips were placed into their respective positions in the FLIPR instrument. Using FLIPR Tetra, 10 μL of the diluted agonist from Step 4 was added to each test well, and the data were collected at a wavelength of 515 nm-575 nm. • 6. The signal values were plotted against the compound concentrations, and the curve fitting and IC50 calculation were performed using the nonlinear regression method of GraphPad Prism software.

OTR = molecular target: T2, OTR (Homo sapiens, UniProt P30559); test: Ca2+ mobilization in cells stably expressing OTR (FLIPR, antagonist mode); assay type: cell-based; settings: OTR/HEK293 stably transfected cell line
T2 construct: expressed in transfected cells; host or cells: OTR/HEK293 stably transfected cell line
T2 sequence (P30559 1-389): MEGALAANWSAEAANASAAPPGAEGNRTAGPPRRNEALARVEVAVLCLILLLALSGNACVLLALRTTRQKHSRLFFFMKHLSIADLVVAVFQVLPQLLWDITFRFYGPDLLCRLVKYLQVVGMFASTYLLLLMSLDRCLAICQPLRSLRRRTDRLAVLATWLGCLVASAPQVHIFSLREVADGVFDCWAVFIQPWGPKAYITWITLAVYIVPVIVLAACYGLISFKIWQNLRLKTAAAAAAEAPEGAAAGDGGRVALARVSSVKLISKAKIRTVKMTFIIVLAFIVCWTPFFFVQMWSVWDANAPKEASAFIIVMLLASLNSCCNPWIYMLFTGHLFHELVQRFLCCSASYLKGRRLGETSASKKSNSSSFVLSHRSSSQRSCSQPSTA
Procedure, shortened: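 OTR/HEK293 stable cells (20,000 per well) were loaded with Fluo-4 Direct plus probenecid. Cells were pre-exposed to 10-point, 3-fold compound dilutions before agonist challenge at EC80, determined beforehand per cell line. FLIPR calcium fluorescence (Max-Min) was fitted in Prism.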

[1] = Pharmacokinetic determination in SD rats; assay type: in vivo; settings: rat, female SD rats, plasma; for AUC(0-t): read-out: Area under the curve AUC0-t; for half-life: read-out: Half-life T1/2 (converted)
Procedure: Test Example 3: Pharmacokinetic Determination in SD Rats
In this study, female SD rats were selected as test animals. The LC/MS/MS method was used to quantitatively determine the plasma drug concentrations of the test compounds at different time points after intravenous injection (2 mg/kg) or oral administration (5 mg/kg) in rats, so as to evaluate the pharmacokinetic profile of the test drugs in rats.
(§1) The example compounds of the present disclosure, made in house.
(§2) SD rats (female, 180-220 g, 6-8 weeks old, purchased from Beijing Vital River Laboratory Animal Technology Co., Ltd., with animal production license number SCXK (Beijing) 2021-0006).
Vehicle for intravenous administration: 5% DMSO+10% Solutol+85% Saline.
Vehicle for oral administration: 5% DMSO+95% PEG400.
The test compound, formulated as a clear solution or suspension, was administered to overnight-fasted SD rats via tail vein injection or oral gavage. For intravenous administration, blood samples (0.25 mL) were collected via jugular vein puncture at pre-dose (0 h) and 0.083, 0.25, 0.5, 1, 2, 4, 6, 8, and 24 h post-dose. The samples were placed into sodium heparin anticoagulant tubes, and the mixture was vortexed thoroughly and centrifuged at 6,000 rpm for 3 minutes at 4° C. For oral gavage, blood samples were collected via jugular vein puncture at pre-dose (0 h) and 0.083, 0.25, 1, 2, 4, 6, 8, and 24 h post-dose. The samples were placed into sodium heparin anticoagulant tubes, and the mixture was vortexed thoroughly and centrifuged at 6,000 rpm for 3 minutes. Plasma drug concentrations were determined using the LC-MS/MS method, and the relevant pharmacokinetic parameters were calculated using the non-compartmental model with linear-log trapezoidal method in Phoenix WinNonlin 8.2.0 pharmacokinetic software.

[2] = Blood-brain distribution determination in SD rats; assay type: in vivo; settings: female SD rats, oral, 10 mg/kg
Procedure: Test Example 4: Blood-Brain Distribution Determination in SD Rats
In this study, female SD rats were selected as test animals. The LC/MS/MS method was used to quantitatively determine the drug concentrations of the test compounds in plasma and brain tissues at three different time points (0.5 h, 2 h, 4 h or 6 h) after oral administration (5 mg/kg or 10 mg/kg) in rats, so as to evaluate the pharmacokinetic profile of the test drugs in rats.
as §1, §2
Vehicle for oral administration: 5% DMSO+95% PEG400 or a mixture of (50% Labrasol+50% Water).
The test compound, formulated as a clear solution or suspension, was administered to overnight-fasted SD rats via oral gavage. For oral gavage, blood samples (0.25 mL) were collected via jugular vein puncture at pre-dose (0 h) and 0.5 h, 2 h, 4 h or 6 h post-dose. The samples were placed into sodium heparin anticoagulant tubes. After collection, the blood samples were placed on wet ice and centrifuged within 1 hour to separate the plasma. The separated plasma was stored frozen in a −80° C. freezer. After blood collection, the animals were euthanized by cervical dislocation. The whole brain tissue was dissected out. The collected brain tissue was first rinsed with physiological saline, blotted dry with absorbent paper, and then stored frozen in a −80° C. freezer. Prior to analysis, the brain tissue samples and plasma samples were taken out from the −80° C. freezer. After the brain tissue samples were completely thawed, a given amount of brain tissue was weighed, and 50% methanol/water was added for homogenization. Drug concentrations in plasma and brain tissues were determined using the LC-MS/MS method, and the relevant pharmacokinetic parameters were calculated using the non-compartmental model with linear-log trapezoidal method in Phoenix WinNonlin 8.2.0 pharmacokinetic software.

T1 sequence (P37288 whole entry, species assumed): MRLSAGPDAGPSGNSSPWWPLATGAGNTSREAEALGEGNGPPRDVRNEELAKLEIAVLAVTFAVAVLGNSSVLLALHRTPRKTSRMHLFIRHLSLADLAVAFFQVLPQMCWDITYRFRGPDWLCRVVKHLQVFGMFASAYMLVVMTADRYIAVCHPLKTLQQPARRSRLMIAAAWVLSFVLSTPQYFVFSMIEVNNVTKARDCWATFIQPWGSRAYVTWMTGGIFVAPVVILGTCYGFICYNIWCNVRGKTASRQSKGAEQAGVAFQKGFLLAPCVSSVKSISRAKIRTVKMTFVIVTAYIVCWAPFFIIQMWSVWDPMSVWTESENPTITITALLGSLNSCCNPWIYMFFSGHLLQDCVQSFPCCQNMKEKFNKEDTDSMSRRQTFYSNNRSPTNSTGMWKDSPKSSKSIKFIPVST

SMILES: CO/N=C1/C[C@@H](CO)N(C(=O)c2ccc(-c3ccc(F)c(C#N)c3C)c3c2OCO3)C1 [Example C0123, (S, Z)-6-Fluoro-3-(7-(2-(hydroxymethyl)-4-(methoxyimino)pyrrolidine-1-carbonyl)benzo[d][1,3]dioxolan-4-yl)-2-methylbenzonitrile]
- IC50 (V1aR): 9060 nM
- IC50 (OTR): 16.1 nM

SMILES: CO/N=C1\C[C@@H](CO)N(C(=O)c2ccc(-c3cccc(C#N)c3C)c3c2OCCO3)C1 [Example C0132, (S,E)-3-(8-(2-(Hydroxymethyl)-4-(methoxyimino)pyrrolidine-1-carbonyl)-2,3-dihydrobenzo[b][1,4]dioxin-5-yl)-2-methylbenzonitrile]
- IC50 (V1aR): 8370 nM
- IC50 (OTR): 11.4 nM

SMILES: CO/N=C1/C[C@@H](CO)N(C(=O)c2ccc(-c3cccc(C#N)c3C)c3c2OCCO3)C1 [Example C0133, (S,Z)-3-(8-(2-(Hydroxymethyl)-4-(methoxyimino)pyrrolidine-1-carbonyl)-2,3-dihydrobenzo[b][1,4]dioxin-5-yl)-2-methylbenzonitrile]
- IC50 (V1aR): 2350 nM
- IC50 (OTR): 8.19 nM

SMILES: CO/N=C1/C[C@@H](CO)N(C(=O)c2ccc(-c3c(F)ccc(C#N)c3C)c3c2OCCO3)C1 [Example C0150, 4-Fluoro-3-(8-((S,Z)-2-(hydroxymethyl)-4-(methoxyimino)pyrrolidine-1-carbonyl)-2,3-dihydrobenzo[b][1,4]dioxin-5-yl)-2-methylbenzonitrile]
- IC50 (V1aR): 4050 nM
- IC50 (OTR): 7.07 nM

SMILES: CO/N=C1/C[C@@H](CO)N(C(=O)c2ccc(-c3cccc(C#N)c3Cl)c3c2OCCO3)C1 [Example C0154, (S,Z)-2-Chloro-3-(8-(2-(hydroxymethyl)-4-(methoxyimino)pyrrolidine-1-carbonyl)-2,3-dihydrobenzo[b][1,4]dioxin-5-yl)benzonitrile]
- IC50 (V1aR): 1610 nM
- IC50 (OTR): 5.32 nM

SMILES: CO/N=C1/C[C@@H](CO)N(C(=O)c2ccc(-c3cccc(C#N)c3C)c(F)c2)C1 [Example C0158, (S,Z)-2′-Fluoro-4′-(2-(hydroxymethyl)-4-(methoxyimino)pyrrolidine-1-carbonyl)-2-methyl-[1,1′-biphenyl]-3-carbonitrile]
- IC50 (V1aR): 520 nM
- IC50 (OTR): 17.2 nM

SMILES: CO/N=C1/C[C@@H](CO)N(C(=O)c2cc(F)c(-c3cccc(C#N)c3C)c3c2OCCO3)C1 [Example C0160, 3-(6-Fluoro-8-((S,Z)-2-(hydroxymethyl)-4-(methoxyimino)pyrrolidine-1-carbonyl)-2,3-dihydrobenzo[b][1,4]dioxin-5-yl)-2-methylbenzonitrile]
- IC50 (V1aR): 529 nM
- IC50 (OTR): 21.9 nM

SMILES: CO/N=C1/C[C@@H](CO)N(C(=O)c2cc(F)c(-c3cccc(C#N)c3C)c3c2OCO3)C1 [Example C0162, 3-(5-Fluoro-7-((S,Z)-2-(hydroxymethyl)-4-(methoxyimino)pyrrolidine-1-carbonyl)benzo[d][1,3]dioxol-4-yl)-2-methylbenzonitrile]
- IC50 (V1aR): 747 nM
- IC50 (OTR): 8.35 nM

SMILES: CO/N=C1/C[C@@H](C(C)(C)O)N(C(=O)c2ccc(-c3cccc(C#N)c3C)cc2)C1 [Example C0164, (S,Z)-4′-(2-(2-Hydroxypropan-2-yl)-4-(methoxyimino)pyrrolidine-1-carbonyl)-2-methyl-[1,1′-biphenyl]-3-carbonitrile]
- IC50 (V1aR): 1870 nM
- IC50 (OTR): 20.6 nM

SMILES: CO/N=C1/C[C@@H](CO)N(C(=O)c2ccc(-c3ccccc3C)cc2)C1 [Nolasiban, reference compound]
- AUC(0-t) ([1]; 2 mg/kg, IV (2 mpk)): 3050 ng·h/mL
- AUC(0-t) ([1]; 5 mg/kg, PO (5 mpk)): 7700 ng·h/mL
- clearance ([1]; 2 mg/kg, IV (2 mpk), read-out: Clearance Cl): 11.1 mL/min/kg
- half-life ([1]; 2 mg/kg, IV (2 mpk)): 2.8 h
- half-life ([1]; 5 mg/kg, PO (5 mpk)): 2.71 h
- Brain tissue area under the curve AUC0-t [2]: 18727 ng·h/g
- Kp ([2]; rat, brain/plasma, read-out: Brain/plasma exposure ratio): 3.29
- AUC(0-t) ([2]; rat, plasma, read-out: Plasma area under the curve AUC0-t): 5700 ng·h/mL
- IC50 (V1aR): 389 nM
